Here are results for 18 compounds from paper PMC6023086, “Improving the Activity of Trp-Rich Antimicrobial Peptides by Arg/Lys Substitutions and Changing the Length of Cationic Residues” (Biomolecules, 2018).

Values after ≈ are worked out from the molar mass of the structure shown. Where a SMILES comes first, the peptide text is derived from it. Where no end group is shown, it is not given here. [ ]: non-standard residue; d: D form. Orn = NCCC[C@H](N)C(=O)O; Dab = NCC[C@H](N)C(=O)O; Dap = NC[C@H](N)C(=O)O

One may read the MIC as the least concentration at which growth counts as inhibited. Read a high MIC as weaker potency.

One experiment concerns Escherichia coli ATCC 25922. The experiment is classed as cell-based. The conditions noted are these: ATCC 25922, 16 h. As for the experimental part: The antibacterial activity of the Tritrp-derived peptides and other AMPs was assessed against E. coli ATCC 25922, as a representative of Gram-negative bacteria, incubated in Mueller-Hinton broth media (Table 2). […] Arg-to-Lys mutations were correlated with a decrease in activity for almost all peptides. […] The lack of sensitivity of the activity of the Tritrp3 peptide to the nature of the positively charged residues prompted a more detailed study of the structure-activity relationship. Tritrp7 and Tritrp8 are analogs of Tritrp3 where only a single Pro residue is mutated by Ala. These mutations are known to alter the 3D structure of the peptides when interacting with sodium dodecyl sulfate (SDS) micelles, specifically reducing the helicity of the original Tritrp3 peptide (Table 1).
The antibacterial activity for the peptides in this study against E. coli ATCC 25922 was determined by the broth microdilution method. Briefly, E. coli cells at 5 × 10^5 cfu/mL, obtained from a single colony culture, were incubated in Mueller Hinton broth (MHB) media (Sigma Aldrich, St. Louis, MO, USA) in the presence of two-fold dilution of peptides (0–256 µM) in 96-well polypropylene microtiter plates (Sigma Aldrich, St. Louis, MO, USA). The plates were incubated at 37 °C for 16 h, and the minimal inhibitory concentration was determined after incubation as the minimal peptide concentration at which cell growth was not observed.
`CC[C@H](C)[C@H](N)C(=O)N[C@@H](CC(C)C)C(=O)N1CCC[C@H]1C(=O)N[C@@H](Cc1c[nH]c2ccccc12)C(=O)N[C@@H](CCCCN)C(=O)N[C@@H](Cc1c[nH]c2ccccc12)C(=O)N1CCC[C@H]1C(=O)N[C@@H](Cc1c[nH]c2ccccc12)C(=O)N[C@@H](Cc1c[nH]c2ccccc12)C(=O)N1CCC[C@H]1C(=O)N[C@@H](Cc1c[nH]c2ccccc12)C(=O)N[C@@H](CCCNC(=N)N)C(=O)N[C@@H](CCCNC(=N)N)C(N)=O` [Indolicidin, reference compound]: the MIC is on record as 8 µM (≈ 15.3 µg/mL). This counts as single-digit micromolar.
As to `CC(C)C[C@H](NC(=O)[C@H](Cc1ccccc1)NC(=O)[C@@H]1CCCN1C(=O)[C@H](Cc1c[nH]c2ccccc12)NC(=O)[C@H](Cc1c[nH]c2ccccc12)NC(=O)[C@H](Cc1c[nH]c2ccccc12)NC(=O)[C@@H]1CCCN1C(=O)[C@H](Cc1ccccc1)NC(=O)[C@H](CCNC(=N)N)NC(=O)[C@H](CCNC(=N)N)NC(=O)[C@@H](N)C(C)C)C(=O)N[C@@H](CCNC(=N)N)C(=O)N[C@@H](CCNC(=N)N)C(N)=O` [Tritrp–Agb], the MIC is on record as 4 µM (≈ 7.38 µg/mL). Compared with the last compound, the MIC is about 2-fold lower.
ILPWKWPWWPWKK-NH2 [Indolicidin–Lys] came in with an MIC of 16 µM. Compared with the last compound, the MIC is about 4-fold higher.
Still for that read-out and setting: in the case of `CC(C)C[C@H](NC(=O)[C@H](Cc1ccccc1)NC(=O)[C@@H]1CCCN1C(=O)[C@H](Cc1c[nH]c2ccccc12)NC(=O)[C@H](Cc1c[nH]c2ccccc12)NC(=O)[C@H](Cc1c[nH]c2ccccc12)NC(=O)[C@@H]1CCCN1C(=O)[C@H](Cc1ccccc1)NC(=O)[C@H](CCCCNC(=N)N)NC(=O)[C@H](CCCCNC(=N)N)NC(=O)[C@@H](N)C(C)C)C(=O)N[C@@H](CCCCNC(=N)N)C(=O)N[C@@H](CCCCNC(=N)N)C(N)=O` [Tritrp–hArg] it was 4 µM (≈ 7.83 µg/mL); in that of `CC(C)C[C@H](NC(=O)[C@H](Cc1ccccc1)NC(=O)[C@@H]1CCCN1C(=O)[C@H](Cc1c[nH]c2ccccc12)NC(=O)[C@H](Cc1c[nH]c2ccccc12)NC(=O)[C@H](Cc1c[nH]c2ccccc12)NC(=O)[C@@H]1CCCN1C(=O)[C@H](Cc1ccccc1)NC(=O)[C@H](CCCN)NC(=O)[C@H](CCCN)NC(=O)[C@@H](N)C(C)C)C(=O)N[C@@H](CCCN)C(=O)N[C@@H](CCCN)C(N)=O` [Tritrp–Orn] (H-V[Orn][Orn]FPWWWPFL[Orn][Orn]-NH2), 16 µM (≈ 27.7 µg/mL).
Consider VKKFAWWWAFLKK-NH2 [Tritrp3–Lys], for which the MIC is 2 µM. Compared with the last compound, the MIC is about 8-fold lower.
VRRFAWWWAFLRR-NH2 [Tritrp3–Arg]: the MIC was 2 µM.
Consider VKKFPWWWPFLKK-NH2 [Tritrp–Lys], for which the MIC is recorded as 16 µM.
Regarding “GIGRWLHSARRFGRAFVGEIMNS [Magainin2-F5W–Arg]”, the MIC is recorded as 8 µM.
Same read-out and setting: in the case of VRRFAWWWPFLRR-NH2 [Tritrp7–Arg] it was 8 µM; in that of VKKFPWWWAFLKK-NH2 [Tritrp8–Lys], 4 µM; in that of `CC(C)C[C@H](NC(=O)[C@H](Cc1ccccc1)NC(=O)[C@@H]1CCCN1C(=O)[C@H](Cc1c[nH]c2ccccc12)NC(=O)[C@H](Cc1c[nH]c2ccccc12)NC(=O)[C@H](Cc1c[nH]c2ccccc12)NC(=O)[C@@H]1CCCN1C(=O)[C@H](Cc1ccccc1)NC(=O)[C@H](CN)NC(=O)[C@H](CN)NC(=O)[C@@H](N)C(C)C)C(=O)N[C@@H](CN)C(=O)N[C@@H](CN)C(N)=O` [Tritrp–Dap] (H-V[Dap][Dap]FPWWWPFL[Dap][Dap]-NH2), 4 µM (≈ 6.48 µg/mL).
The same measure, in the same setting: in the case of `CC(C)C[C@H](NC(=O)[C@H](Cc1ccccc1)NC(=O)[C@@H]1CCCN1C(=O)[C@H](Cc1c[nH]c2ccccc12)NC(=O)[C@H](Cc1c[nH]c2ccccc12)NC(=O)[C@H](Cc1c[nH]c2ccccc12)NC(=O)[C@@H]1CCCN1C(=O)[C@H](Cc1ccccc1)NC(=O)[C@H](CCN)NC(=O)[C@H](CCN)NC(=O)[C@@H](N)C(C)C)C(=O)N[C@@H](CCN)C(=O)N[C@@H](CCN)C(N)=O` [Tritrp–Dab] (H-V[Dab][Dab]FPWWWPFL[Dab][Dab]-NH2) it was 4 to 8 µM.
VRRFPWWWAFLRR-NH2 [Tritrp8–Arg] returned an MIC of 2 to 4 µM.
On the same count and under the same terms, in the case of VKKFAWWWPFLKK-NH2 [Tritrp7–Lys] it was 32 µM; in that of `CC(C)C[C@H](NC(=O)[C@H](Cc1ccccc1)NC(=O)[C@@H]1CCCN1C(=O)[C@H](Cc1c[nH]c2ccccc12)NC(=O)[C@H](Cc1c[nH]c2ccccc12)NC(=O)[C@H](Cc1c[nH]c2ccccc12)NC(=O)[C@@H]1CCCN1C(=O)[C@H](Cc1ccccc1)NC(=O)[C@H](CCCNC(=N)N)NC(=O)[C@H](CCCNC(=N)N)NC(=O)[C@@H](N)C(C)C)C(=O)N[C@@H](CCCNC(=N)N)C(=O)N[C@@H](CCCNC(=N)N)C(N)=O` [Tritrp–Arg], 2 to 4 µM.

Still in this experiment, the particulars now being: E. coli ATCC 25922, Mueller-Hinton broth, 5 × 10^5 cfu/mL, 37 °C, 16 h; run in triplicate, range of all three experiments.
On to FPVTWRWWRWWRG-NH2 [PuroA–Arg], for which the MIC lay in the range of 8 to 16 µM.
“FPVTWKWWKWWKG-NH2 [PuroA–Lys, reference compound]” yielded an MIC of 8 µM.
